This experiment deals with L1210 leukemia ip in BDF1 mice, survival T/C. Briefly: NCI In Vivo Anticancer Drug Screen. Data for tumor model L1210 Leukemia (intraperitoneal) in B6D2F1 (BDF1) mice. Conditions: endpoint: mean survival time, higher = longer survival. Summed up:
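Tumor was transplanted into mice, which were then dosed with test compound or vehicle alone. Survival was recorded for each group, and the treated figure was expressed relative to the control figure.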

Setting [1] is: dose: 100.0 mg/kg/injection, schedule: Q04DX003 (ip), vehicle: saline.
The mark [2] stands for this setting: dose: 200.0 mg/kg/injection, schedule: Q04DX003 (ip), vehicle: saline.
Setting [3] is: dose: 100.0 mg/kg/injection, schedule: Q01DX009 (ip), vehicle: Klucel (hydroxypropylcellulose) (HPC).
[4] abbreviates: dose: 200.0 mg/kg/injection, schedule: Q01DX009 (ip), vehicle: Klucel (hydroxypropylcellulose) (HPC).

Inconclusive results and toxic doses are left out.

Regarding `C1CC2CCC[N+]3=C2C(C1)CCC3` (centres undefined), the T/C was 93 % of control (dose: 12.0 mg/kg/injection, schedule: Q04DX003 (ip), vehicle: saline); 97 % of control (dose: 12.5 mg/kg/injection, schedule: Q01DX009 (ip), vehicle: saline); 101 % of control (dose: 25.0 mg/kg/injection, schedule: Q01DX009 (ip), vehicle: saline); 91 % of control (dose: 25.0 mg/kg/injection, schedule: Q04DX003 (ip), vehicle: saline); 101 % of control (dose: 50.0 mg/kg/injection, schedule: Q01DX009 (ip), vehicle: saline); 101 % of control (dose: 50.0 mg/kg/injection, schedule: Q04DX003 (ip), vehicle: saline).

For `COc1ccc(-c2cc(-c3ccc(Cl)cc3)no2)cc1`, the T/C runs as follows: (dose: 100.0 mg/kg/injection, schedule: Q04DX003 (ip), vehicle: Klucel (hydroxypropylcellulose) (HPC)) 106 % of control; (dose: 200.0 mg/kg/injection, schedule: Q04DX003 (ip), vehicle: Klucel (hydroxypropylcellulose) (HPC)) 92 % of control; (dose: 400.0 mg/kg/injection, schedule: Q04DX003 (ip), vehicle: Klucel (hydroxypropylcellulose) (HPC)) 95 % of control.

For the compound `CCN(CC)CCCC(C)Nc1ccccn1` (centres undefined), the T/C (dose: 75.0 mg/kg/injection, schedule: Q01DX001 (ip), vehicle: carboxymethylcellulose (CMC)) was 102 % of control and the T/C (dose: 150.0 mg/kg/injection, schedule: Q01DX001 (ip), vehicle: carboxymethylcellulose (CMC)) is 100 % of control.

As to `CN(C)C(=O)c1cccc(NC(=O)NCc2cccc(N3C(N)=NC(N)=NC3(C)C)c2)c1`, the T/C is, setting by setting: (dose: 100.0 mg/kg/injection, schedule: Q01DX009 (ip), vehicle: saline with Tween-80) 91 % of control; (dose: 100.0 mg/kg/injection, schedule: Q04DX003 (ip), vehicle: saline with Tween-80) 97 % of control.

Turning to `CCOC(=O)N1CCN(CCO)CC1`, the T/C reads like this: under setting [1], 102 % of control; under setting [2], 94 % of control.

With `O=S(=O)(Cc1nc2ccccc2[nH]1)Cc1nc2ccccc2[nH]1`, the T/C reads like this: (dose: 50.0 mg/kg/injection, schedule: Q01DX001 (ip), vehicle: carboxymethylcellulose (CMC)) 97 % of control; (dose: 100.0 mg/kg/injection, schedule: Q01DX001 (ip), vehicle: carboxymethylcellulose (CMC)) 92 % of control; (dose: 200.0 mg/kg/injection, schedule: Q01DX001 (ip), vehicle: carboxymethylcellulose (CMC)) 100 % of control; (dose: 400.0 mg/kg/injection, schedule: Q01DX001 (ip), vehicle: carboxymethylcellulose (CMC)) 92 % of control.

Turning to `CC(CCOCC1CO1)OCC1CO1` (centres undefined), the T/C (dose: 100.0 mg/kg/injection, schedule: Q01DX009 (ip), vehicle: saline) was 101 % of control; the T/C under setting [1] was 106 % of control; the T/C (dose: 200.0 mg/kg/injection, schedule: Q01DX009 (ip), vehicle: saline) was 113 % of control; the T/C under setting [2] was 105 % of control; the T/C (dose: 400.0 mg/kg/injection, schedule: Q01DX009 (ip), vehicle: saline) is 120 % of control; the T/C (dose: 400.0 mg/kg/injection, schedule: Q04DX003 (ip), vehicle: saline) was 120 % of control.

Turning to `O=C(CCN1CCCCC1)C(O)(c1ccccc1)c1ccccc1`, the T/C by setting is: (dose: 75.0 mg/kg/injection, schedule: Q01DX001 (ip), vehicle: other) 103 % of control; (dose: 150.0 mg/kg/injection, schedule: Q01DX001 (ip), vehicle: other) 97 % of control; (dose: 300.0 mg/kg/injection, schedule: Q01DX001 (ip), vehicle: other) 104 % of control.

On to `CCOCCOCCOC(C)Oc1ccc(C(=O)OCC)cc1` (centres undefined), for which the T/C runs as follows: (dose: 100.0 mg/kg/injection, schedule: Q04DX002 (ip), vehicle: saline with Tween-80) 103 % of control; (dose: 200.0 mg/kg/injection, schedule: Q04DX002 (ip), vehicle: saline with Tween-80) 100 % of control; (dose: 400.0 mg/kg/injection, schedule: Q04DX002 (ip), vehicle: saline with Tween-80) 107 % of control.

Regarding `OCCN(CCO)c1cc(OCc2ccccc2)cc(OCc2ccccc2)c1`, the T/C by setting is: (dose: 25.0 mg/kg/injection, schedule: Q01DX009 (ip), vehicle: water) 94 % of control; (dose: 50.0 mg/kg/injection, schedule: Q01DX009 (ip), vehicle: water) 97 % of control; (dose: 100.0 mg/kg/injection, schedule: Q01DX009 (ip), vehicle: water) 101 % of control; (dose: 200.0 mg/kg/injection, schedule: Q01DX009 (ip), vehicle: water) 86 % of control; (dose: 400.0 mg/kg/injection, schedule: Q01DX009 (ip), vehicle: water) 95 % of control.

Regarding `O=S(=O)(OCC1CO1)c1ccccc1` (centres undefined), the T/C runs as follows: (dose: 50.0 mg/kg/injection, schedule: Q01DX006 (ip), vehicle: saline with Tween-80) 103 % of control; (dose: 100.0 mg/kg/injection, schedule: Q01DX006 (ip), vehicle: saline with Tween-80) 106 % of control; (dose: 200.0 mg/kg/injection, schedule: Q01DX006 (ip), vehicle: saline with Tween-80) 110 % of control.

For the compound `CN(CCN(C)P(=O)(N1CC1)N1CC1)P(=O)(N1CC1)N1CC1`, the T/C was 87 % of control (dose: 0.62 mg/kg/injection, schedule: Q01DX Z (ip), vehicle: saline); 90 % of control (dose: 1.25 mg/kg/injection, schedule: Q01DX Z (ip), vehicle: saline); 92 % of control (dose: 2.5 mg/kg/injection, schedule: Q01DX Z (ip), vehicle: saline); 108 % of control (dose: 5.0 mg/kg/injection, schedule: Q01DX Z (ip), vehicle: saline); 156 % of control (dose: 20.0 mg/kg/injection, schedule: Q01DX Z (ip), vehicle: saline).

As for `Cc1cc(C)c(C(Br)C(Br)c2c(C)cc(C)cc2C)c(C)c1` (centres undefined), the T/C (dose: 12.5 mg/kg/injection, schedule: Q01DX009 (ip), vehicle: saline with Tween-80) was 88 % of control; the T/C (dose: 12.5 mg/kg/injection, schedule: Q04DX003 (ip), vehicle: saline with Tween-80) was 98 % of control; the T/C (dose: 25.0 mg/kg/injection, schedule: Q01DX009 (ip), vehicle: saline with Tween-80) is 87 % of control; the T/C (dose: 25.0 mg/kg/injection, schedule: Q04DX003 (ip), vehicle: saline with Tween-80) was 93 % of control; the T/C (dose: 50.0 mg/kg/injection, schedule: Q04DX003 (ip), vehicle: saline with Tween-80) was 91 % of control.

For `CNC(=O)N(C)Cc1ccco1`, the T/C was 91 % of control (dose: 50.0 mg/kg/injection, schedule: Q01DX009 (ip), vehicle: Klucel (hydroxypropylcellulose) (HPC)); 102 % of control under setting [3]; 101 % of control under setting [4].

Turning to `COC(=O)C1(C)CCC2(C)CCC3(C)C4=CC=C5C(=CC(=O)C(O)=C5C)C4(C)CCC3(C)C2C1` (centres undefined), the T/C reads like this: (dose: 37.5 mg/kg/injection, schedule: Q01DX001 (sc), vehicle: steriod suspending solution) 104 % of control; (dose: 75.0 mg/kg/injection, schedule: Q01DX001 (sc), vehicle: steriod suspending solution) 98 % of control; (dose: 150.0 mg/kg/injection, schedule: Q01DX001 (sc), vehicle: steriod suspending solution) 98 % of control; (dose: 300.0 mg/kg/injection, schedule: Q01DX001 (sc), vehicle: steriod suspending solution) 95 % of control.

In the case of `COC(=O)C1(C)CCCC2(C)c3cc(OC)c4c(c3CCC12)C(=O)CCC4` (centres undefined), the T/C (dose: 100.0 mg/kg/injection, schedule: Q01DX001 (sc), vehicle: steriod suspending solution) was 93 % of control; the T/C (dose: 200.0 mg/kg/injection, schedule: Q01DX001 (sc), vehicle: steriod suspending solution) was 90 % of control; the T/C (dose: 400.0 mg/kg/injection, schedule: Q01DX001 (sc), vehicle: steriod suspending solution) is 98 % of control.

`CCc1ccccc1NC(=O)NCc1ccco1`: the T/C was 101 % of control under setting [3] and 92 % of control under setting [4].

For the compound `NC(c1ccccc1)C(O)c1ccccc1` (centres undefined), the T/C is 98 % of control (dose: 37.5 mg/kg/injection, schedule: Q04DX003 (ip), vehicle: saline); 92 % of control (dose: 75.0 mg/kg/injection, schedule: Q04DX003 (ip), vehicle: saline); 101 % of control (dose: 150.0 mg/kg/injection, schedule: Q04DX003 (ip), vehicle: saline).

The values above are taken from PubChem BioAssay AID248 (DTP/NCI, 2004).
